US11964929B2, “Application of glutamine derivative in preparation of animal feed additive” (WISORIG TE[…]. LIMITED, priority 2018, dated 2024)

Experiments:
[1] = test system: Duroc×Landrace×Yorkshire cross-bred bacon-type pigs; test: Effect of the glutamine derivatives on the production performance of hogs (piglets), 28-day feeding; type: in vivo; conditions: 65-day-old pigs, basal ration + 800 ppm, 28 days; for FCR (feed conversion ratio): ADFI/ADG
From the text: 480 65-day-old Duroc×Landrace×Yorkshire cross-bred bacon-type pigs with similar body weight, were randomly divided into 16 groups, with 3 replications per group and 10 pigs (half of male and female) per replication. The pig pen and tools were sterilized before the experiment. […] The experiment lasted for 28 days.

[2] = test system: yellow broilers; conditions: 1-day-old yellow broilers, basal ration + 750 ppm, 20 days; for FCR (feed conversion ratio): ADFI/ADG
Procedure: The experiment was conducted with single-factor randomized design. 720 1-day-old yellow broilers with a similar average body weight of 50 g, was randomly divided into 16 groups, each group consisting of 3 replicates and equal numbers of males and females, and each replicate consisting of 15 yellow broilers. The chicken house and tools were sterilized before the experiment. During the experiment, the broilers were kept in separate regions in the same chicken house under the same feeding and management conditions. Basal ration mainly consisted of corn and soybean meal. During the entire process, each treatment group was not given other antioxidants or growth promoters. […] The experiment lasted for 20 days. The broilers were given ad libitum access to food and water, and feeds were provided twice every day. At the day when the broilers were 21-day old (withdrawing feed for 12 hours, without withdrawing water), taking each replicate as one unit, body weights of the broilers were measured for calculating average daily feed intake (ADFI, g/d per broiler), average daily weigh gain (ADG, g/d per broiler), and feed conversion ratio (FCR). Feed conversion ratio (FCR)=Average daily feed intake/Average daily weight gain

[3] = test system: Grass carps; conditions: basal ration + 500 ppm, 8 weeks; for Feed coefficient: 580/(final−initial weight); for Weight gain rate: (final−initial)/initial×100; for Average final weight: restricted feeding
Procedure: Grass carps were used in this experiment, which is conducted in an aquaculture region in the Guangzhou Insighter experiment yard. Healthy grass carps with the same size were reared in large netcages for 4 weeks before the experiment. The grass carps were kept in small floating netcages during the experiment. The small netcages and netcages for acclimatization were both placed in a 3500 m^2 pond in the experiment yard. […] In the experiment, 520 grass carps, which had been starved for 1 day, were randomly divided into 13 groups, each group consisting of 4 replicates, and each replicate consisting of 10 grass carps. The grass carps were weighed, taking each replicate as a whole. Then they were randomly released to 52 netcages in which they were fed with different feeds. […] Feed restriction had been adopted during the experiment, and the feeding amount was adjusted once a week. The treatment and control groups were fed twice (7:30 and 15:30) every day, with their feeding levels (based on initial body weights) being identical to be a total amount of 580 g. The experiment lasted for 8 weeks.
Calculation: Weight gain rate (%)=(Average final weight−Average initial weight)/Average initial weight×100 Feed coefficient=580/(Average final weight−Average initial weight)

SMILES: CCNC(=O)CCC(NC(=O)c1ccccc1)C(=O)O (stereo not drawn) [Compound 1]
- ADFI (average daily feed intake) [1]: 1657 g/d per piglet
- ADG (average daily weight gain) [1]: 661 g/d per piglet
- FCR (feed conversion ratio) [1]: 2.506
- ADFI (average daily feed intake) [2]: 32.8 g/d per broiler
- ADG (average daily weight gain) [2]: 14.8 g/d per broiler
- FCR (feed conversion ratio) [2]: 2.22
- Feed coefficient [3]: 1.79
- Weight gain rate [3]: 72.41%
- Average final weight [3]: 678 g

SMILES: CCCCNC(=O)CCC(NC(=O)c1ccccc1)C(=O)O (stereo not drawn) [Compound 2]
- ADFI (average daily feed intake) [1]: 1648 g/d per piglet
- ADG (average daily weight gain) [1]: 651 g/d per piglet
- FCR (feed conversion ratio) [1]: 2.531
- ADFI (average daily feed intake) [2]: 31.5 g/d per broiler
- ADG (average daily weight gain) [2]: 14.1 g/d per broiler
- FCR (feed conversion ratio) [2]: 2.23
- Feed coefficient [3]: 1.78
- Weight gain rate [3]: 70.47%
- Average final weight [3]: 690 g

SMILES: O=C(NC(CCC(=O)N1CCCCC1)C(=O)O)c1ccccc1 (stereo not drawn) [Compound 5]
- ADFI (average daily feed intake) [1]: 1633 g/d per piglet
- ADG (average daily weight gain) [1]: 651 g/d per piglet
- FCR (feed conversion ratio) [1]: 2.510
- ADFI (average daily feed intake) [2]: 30.9 g/d per broiler
- ADG (average daily weight gain) [2]: 13.7 g/d per broiler
- FCR (feed conversion ratio) [2]: 2.26
- Feed coefficient [3]: 1.80
- Weight gain rate [3]: 71.27%
- Average final weight [3]: 678 g

SMILES: CCNC(=O)CCC(NC(=O)c1ccccc1)C(=O)OCC (stereo not drawn) [Compound 6]
- ADFI (average daily feed intake) [1]: 1615 g/d per piglet
- ADG (average daily weight gain) [1]: 646 g/d per piglet
- FCR (feed conversion ratio) [1]: 2.499
- ADFI (average daily feed intake) [2]: 31.2 g/d per broiler
- ADG (average daily weight gain) [2]: 14.2 g/d per broiler
- FCR (feed conversion ratio) [2]: 2.20
- Feed coefficient [3]: 1.77
- Weight gain rate [3]: 72.84%
- Average final weight [3]: 681 g

SMILES: CCNC(=O)CCC(NC(=O)c1ccccc1)C(=O)[O-].CCNC(=O)CCC(NC(=O)c1ccccc1)C(=O)[O-].[Zn+2] (stereo not drawn) [Compound 7]
- ADFI (average daily feed intake) [1]: 1674 g/d per piglet
- ADG (average daily weight gain) [1]: 672 g/d per piglet
- FCR (feed conversion ratio) [1]: 2.491
- ADFI (average daily feed intake) [2]: 31.7 g/d per broiler
- ADG (average daily weight gain) [2]: 14.5 g/d per broiler
- FCR (feed conversion ratio) [2]: 2.18

SMILES: CCNC(=O)CCC(NC(=O)c1ccccc1)C(=O)[O-].CCNC(=O)CCC(NC(=O)c1ccccc1)C(=O)[O-].[Cu+2] (stereo not drawn) [Compound 8]
- ADFI (average daily feed intake) [1]: 1670 g/d per piglet
- ADG (average daily weight gain) [1]: 671 g/d per piglet
- FCR (feed conversion ratio) [1]: 2.488
- ADFI (average daily feed intake) [2]: 30.6 g/d per broiler
- ADG (average daily weight gain) [2]: 14.2 g/d per broiler
- FCR (feed conversion ratio) [2]: 2.16

SMILES: CCNC(=O)CCC(NC(=O)c1ccccc1)C(=O)[O-].CCNC(=O)CCC(NC(=O)c1ccccc1)C(=O)[O-].[Ca+2] (stereo not drawn) [Compound 9]
- ADFI (average daily feed intake) [1]: 1636 g/d per piglet
- ADG (average daily weight gain) [1]: 652 g/d per piglet
- FCR (feed conversion ratio) [1]: 2.511
- ADFI (average daily feed intake) [2]: 32.5 g/d per broiler
- ADG (average daily weight gain) [2]: 14.8 g/d per broiler
- FCR (feed conversion ratio) [2]: 2.20

SMILES: CCNC(=O)CCC(NC(=O)c1ccc(Cl)cc1)C(=O)O (stereo not drawn) [Compound 10]
- ADFI (average daily feed intake) [1]: 1607 g/d per piglet
- ADG (average daily weight gain) [1]: 657 g/d per piglet
- FCR (feed conversion ratio) [1]: 2.508
- ADFI (average daily feed intake) [2]: 32.2 g/d per broiler
- ADG (average daily weight gain) [2]: 14.5 g/d per broiler
- FCR (feed conversion ratio) [2]: 2.22
- Feed coefficient [3]: 1.81
- Weight gain rate [3]: 72.34%
- Average final weight [3]: 669 g

SMILES: CCNC(=O)CCC(NC(=O)c1ccc(C)cc1)C(=O)O (stereo not drawn) [Compound 11]
- ADFI (average daily feed intake) [1]: 1592 g/d per piglet
- ADG (average daily weight gain) [1]: 634 g/d per piglet
- FCR (feed conversion ratio) [1]: 2.512
- ADFI (average daily feed intake) [2]: 30.8 g/d per broiler
- ADG (average daily weight gain) [2]: 13.8 g/d per broiler
- FCR (feed conversion ratio) [2]: 2.24
- Feed coefficient [3]: 1.80
- Weight gain rate [3]: 70.73%
- Average final weight [3]: 681 g

SMILES: CCNC(=O)CCC(NC(=O)c1ccc(O)cc1)C(=O)O (stereo not drawn) [Compound 12]
- ADFI (average daily feed intake) [1]: 1599 g/d per piglet
- ADG (average daily weight gain) [1]: 633 g/d per piglet
- FCR (feed conversion ratio) [1]: 2.528
- ADFI (average daily feed intake) [2]: 31.6 g/d per broiler
- ADG (average daily weight gain) [2]: 14.0 g/d per broiler
- FCR (feed conversion ratio) [2]: 2.26
- Feed coefficient [3]: 1.79
- Weight gain rate [3]: 69.56%
- Average final weight [3]: 692 g

SMILES: CCCC(=O)NC(CCC(=O)NCC)C(=O)O (stereo not drawn) [Compound 13]
- ADFI (average daily feed intake) [1]: 1609 g/d per piglet
- ADG (average daily weight gain) [1]: 627 g/d per piglet
- FCR (feed conversion ratio) [1]: 2.566
- ADFI (average daily feed intake) [2]: 31.3 g/d per broiler
- ADG (average daily weight gain) [2]: 13.7 g/d per broiler
- FCR (feed conversion ratio) [2]: 2.28
- Feed coefficient [3]: 1.83
- Weight gain rate [3]: 70.42%
- Average final weight [3]: 687 g

SMILES: CCCCCCCCCC(=O)NC(CCC(=O)NCC)C(=O)O (stereo not drawn) [Compound 14]
- ADFI (average daily feed intake) [1]: 1582 g/d per piglet
- ADG (average daily weight gain) [1]: 621 g/d per piglet
- FCR (feed conversion ratio) [1]: 2.548
- ADFI (average daily feed intake) [2]: 31.8 g/d per broiler
- ADG (average daily weight gain) [2]: 14.0 g/d per broiler
- FCR (feed conversion ratio) [2]: 2.27
- Feed coefficient [3]: 1.81
- Weight gain rate [3]: 70.70%
- Average final weight [3]: 678 g

SMILES: CCCCCCCCCCCCCC(=O)NC(CCC(=O)NCC)C(=O)O (stereo not drawn) [Compound 15]
- ADFI (average daily feed intake) [1]: 1670 g/d per piglet
- ADG (average daily weight gain) [1]: 650 g/d per piglet
- FCR (feed conversion ratio) [1]: 2.571
- ADFI (average daily feed intake) [2]: 32.4 g/d per broiler
- ADG (average daily weight gain) [2]: 14.6 g/d per broiler
- FCR (feed conversion ratio) [2]: 2.22
- Feed coefficient [3]: 1.80
- Weight gain rate [3]: 70.73%
- Average final weight [3]: 681 g
